Measurements from PubChem BioAssay AID743403 (Broad Institute, 2014).
“And” between values parts separate entries of the source, which are not always exact repeats. Equal entries are not always repeated. The source made the active and inactive calls. How the calls were made is not given here.

How the values were obtained:
[1] = tested on: Cryptococcus neoformans cell lysis, plate reader; assay: fungal cell lysis by compounds – dry powder, set 2, dose response (AID 743403)
[2] = as above; conditions: Cryptococcus neoformans cell lysis, plate reader; at 35 µM (top of the series)

Compound | AC50 [1] | activity change, negative = active [2]
Fc1cccc2c1[nH]c(=S)n2CCOc1ccccc1 | 26.2 µM | 
Cc1ccc(C(C)C)c(OCCn2c(CO)nc3ccccc32)c1 |  | -20.4% (inactive)
COCc1nc2ccccc2n1CCOc1ccc(C(C)(C)C)cc1 |  | 5.6% (inactive)
Cc1cccc(OCCn2c(=S)[nH]c3cc(F)ccc32)c1 | 14.8 µM and 15.5 µM | 
CC(C)(C)c1ccc(OCCn2cnc3ccccc32)c(Cl)c1 | 20.8 µM | 
NCC(=O)Nc1ccc(-n2nc(C(F)(F)F)cc2-c2ccc3c(ccc4ccccc43)c2)cc1 | 10.9 µM | 
Cc1cc2ncn(CCOc3ccccc3C)c2cc1C | 19.8 µM | 
COc1ccccc1OCCn1c(=S)[nH]c2ccccc21 |  | 3.55% (inactive)
S=c1[nH]c2cc(Cl)ccc2n1CCOc1ccccc1 |  | 27% (inactive)
Cc1cccc(OCCn2c(=S)[nH]c3ccccc32)c1 | 19.5 µM | 
Cc1ccc2c(c1)[nH]c(=S)n2CCOc1ccccc1 | 17.4 µM | 
COc1ccccc1OCCn1c(SC)nc2ccccc21 | > 70 µM (inactive) | 
COc1ccc(OCCn2cnc3ccccc32)cc1 |  | -22.1% (inactive)
CCCCc1nc2ccccc2n1CCOc1ccccc1 |  | 0.005% (inactive)
Cc1ccc(OCCn2cnc3ccccc32)c(C)c1 | 7.4 µM | 
Cc1cc2ncn(CCOc3ccc4c(c3)CCC4)c2cc1C | 5.59 µM | 
CC(C)Oc1ccc(OCCn2c(=S)[nH]c3ccccc32)cc1 | 29.7 µM | 
CS(=O)(=O)c1ccc(OCCn2cnc3ccccc32)cc1 |  | -15.6% (inactive)
OCc1nc2ccccc2n1CCOc1ccccc1 |  | -9.32% (inactive)
CCSc1nc2ccccc2n1CCOc1ccccc1 |  | -22.6% (inactive)
CCCc1nc2ccccc2n1CCOc1ccccc1 |  | 0.352% (inactive)
CSc1nc2ccccc2n1CCOc1cc(C)ccc1C(C)C |  | -4.35% (inactive)
CC(C)(C)c1ccc(OCCn2cnc3ccccc32)cc1 | 30.5 µM | 

Compound | AC50 [1] | activity change, negative = active [2]
Clc1ccccc1OCCn1cnc2ccccc21 | 36.3 µM | 
c1ccc2c(c1)ncn2CCOc1ccc2c(c1)CCC2 | 3.76 µM | 
Cc1ccc(C(C)C)c(OCCn2c(=O)[nH]c3ccccc32)c1 |  | -16.7% (inactive)
Fc1ccc2c(c1)[nH]c(=S)n2CCOc1ccccc1 | 23.2 µM and 28.7 µM | 
c1ccc(-c2ccc(OCCn3cnc4ccccc43)cc2)cc1 |  | -12.5% (inactive)
Cc1ccc(C(C)C)c(OCCn2c(N)nc3ccccc32)c1 |  | 69.2% (inactive)
Cc1cc2ncn(CCOc3ccccc3)c2cc1C | 25 µM | 
S=c1[nH]c2cccc(Cl)c2n1CCOc1ccccc1 | 8.43 µM | 
Cc1cccc(OCCn2c(=S)[nH]c3c(F)cccc32)c1 |  | 1.05% (inactive)
FC(F)(F)c1cccc(OCCn2cnc3ccccc32)c1 | > 70 µM (inactive) | 
CC(C)Oc1cccc(OCCn2cnc3ccccc32)c1 | 29 µM | 
CSc1nc2ccccc2n1CCOc1ccc(C)cc1 | > 70 µM (inactive) | 
CC(C)c1ccccc1NCCn1c(=S)[nH]c2ccccc21 |  | 0.673% (inactive)
Cc1ccc(C(C)C)c(OCCn2c(=S)[nH]c3ccccc32)c1 | 4.95 µM | 
CC(C)c1ccccc1OCCn1c(=S)[nH]c2ccccc21 | 11.9 µM | 
O=S(=O)(c1ccc(OCCn2cnc3ccccc32)cc1)N1CCOCC1 |  | -21.8% (inactive)
Fc1ccc(OCCn2c(=S)[nH]c3ccccc32)cc1 |  | -33.3% (inactive)
Cc1cccc(OCCn2c(=S)[nH]c3ccc(C(F)(F)F)cc32)c1 |  | 4.5% (inactive)
CCc1nc2ccccc2n1CCOc1ccccc1 |  | 5.25% (inactive)
Clc1ccc(OCCn2cnc3ccccc32)cc1 | 32.5 µM | 
Clc1ccc(OCCn2cnc3ccccc32)c(Cl)c1 | 7.76 µM | 
Cc1ccc(OCCn2cnc3cc(C)c(C)cc32)cc1 | 15.9 µM | 
Cc1ccc(C(C)C)c(OCCn2c(NC#N)nc3ccccc32)c1 |  | -9.31% (inactive)
